According to patent publication US20220267478A1, “PEPTIDE-LOADED CARRIER SYSTEMS AND USES THEREOF” (Academia Sinica, priority 2019, published 2022):
≈ marks a conversion by molar mass, not a printed value. Ends that are not written are not given here.

Assays:
[1] = Aqueous solubility of peptides; settings: for Solubility of unmodified peptide epitope: Table 1; for solubility / water solubility (in words): water
[2] = from Vasievich et al.; cited from earlier work
CD8 T cells = assay: Trp2-specific CD8 T cell response in splenocytes of vaccinated mice (intracellular IFN-γ staining, flow cytometry); type: in vivo, C57BL/6 mice; settings: peptide in nanoparticles with cdGMP; FIG. 10
Protocol: The immunogenicity of modified Trp2 peptides was tested by encapsulating them in the aqueous core of hollow thin-shell nanoparticles together with a fixed amount of stimulator of interferon genes (STING) agonist cyclic di-GMP (cdGMP) and injecting them into mice.
The modified Trp2 peptides were as follows: (i) D4-Trp2-D5, (ii) Trp2-D5, (iii) D5-Trp2, (iv) D2G3-Trp2-G3D2, (v) Trp2-G3D3, and (vi) D3G3-Trp2. As Trp2 itself cannot be incorporated into the aqueous core due to its hydrophobicity, a longer Trp2 peptide, namely, Trp2168-195 was encapsulated as a positive control.
Nanoparticles each containing an equivalent dose of one of the Trp2 peptides and cdGMP were prepared as described in Example 1 above and administered to C57BL/6 mice on day 0 and day 21 by subcutaneous injection at the base of the tail. On day 28, splenocytes of the vaccinated mice were isolated and examined for Trp2-specific CD8 T cell immune responses. Briefly, splenocytes from each mouse were challenged with Trp2 peptide and expression of IFN-γ in CD8 T cells was measured by intracellular cytokine staining and flow cytometry.

JAWSII dendritic cells = assay: Dendritic cell surface marker expression after nanoparticle incubation and LPS stimulation; type: cell-based; settings: FIG. 24
Protocol: FIG. 24 includes bar graphs showing the percentage of JAWSII dendritic cells expressing CD80 (upper left panel), CD86 (upper right panel), MHC I (bottom left panel) and MHC II (bottom right panel) assessed by flow cytometric analysis after the cells were co-cultured with the indicated aspirin/peptide formulations.
Dendritic cells were incubated with nanoparticles co-encapsulating adaptor modified OTII peptide and aspirin or adaptor-modified peptides only for 6 h, and then were stimulated with low dose of lipopolysaccharide (“LPS”). Dendritic cell phenotypes were observed 24 h later. See the experimental scheme in FIG. 23.

CC[C@H](C)[C@H](NC(=O)[C@@H](NC(=O)[C@@H](N)CO)[C@@H](C)CC)C(=O)N[C@@H](CC(N)=O)C(=O)N[C@@H](Cc1ccccc1)C(=O)N[C@@H](CCC(=O)O)C(=O)N[C@@H](CCCCN)C(=O)N[C@@H](CC(C)C)C(=O)O [OVA257-264, SIINFEKL]
Solubility of unmodified peptide epitope [1]: hydrophilic
solubility [1]: 2 mM (≈ 1930 µg/mL)

QVYSLIRPNENPAHK [influenza virus nucleoprotein NP311, QVYSLIRPNENPAHK]
Solubility of unmodified peptide epitope [1]: hydrophilic

DDDGGGSVYDFFVWL [D3G3-Trp2, DDDGGGSVYDFFVWL]
solubility fold higher than the Trp2 peptide ([1]; H2O): over 500 fold
solubility [1]: > 30 mM

CC(C)C[C@H](NC(=O)[C@H](Cc1c[nH]c2ccccc12)NC(=O)[C@@H](NC(=O)[C@H](Cc1ccccc1)NC(=O)[C@H](Cc1ccccc1)NC(=O)[C@H](CC(=O)O)NC(=O)[C@H](Cc1ccc(O)cc1)NC(=O)[C@@H](NC(=O)[C@@H](N)CO)C(C)C)C(C)C)C(=O)O [Trp2, SVYDFFVWL]
maximum solubility in water [2]: 0.06 mM

KVPRNQDWL [gp100, KVPRNQDWL]
Solubility of unmodified peptide epitope [1]: hydrophilic

TAYRYHLL [Trp1m, TAYRYHLL]
Solubility of unmodified peptide epitope [1]: hydrophilic

DDDGGGSIINFEKL [D3G3-OVA]
solubility [1]: 50 mM

FQDAYNAAGGHNAVF [Mycobacterium tuberculosis p25, FQDAYNAAGGHNAVF]
Solubility of unmodified peptide epitope [1]: hydrophobic

ASMTNMELM [Adpgk, ASMTNMELM]
Solubility of unmodified peptide epitope [1]: hydrophobic
water solubility (in words) [1]: poorly soluble

SIIVFNLL [Dpagt1, SIIVFNLL]
Solubility of unmodified peptide epitope [1]: hydrophobic
water solubility (in words) [1]: poorly soluble

Trp2168-195: longer Trp2 peptide containing sequences flanking the target epitope 180-188; positive control
CD8+ T cell response, fold weaker compared to D3G3-Trp2 (CD8 T cells): ~20 fold

ISQAVHAAHAEINEAGR [OT-II, ISQAVHAAHAEINEAGR]
Solubility of unmodified peptide epitope [1]: hydrophilic

lipopolysaccharide [LPS]
expression of CD80, CD86, MHC I, and MHC II compared to vehicle control (JAWSII dendritic cells): increased expression

AQLANDVVL [Resp1, AQLANDVVL]
Solubility of unmodified peptide epitope [1]: hydrophobic
water solubility (in words) [1]: poorly soluble
